Legend:
[1] = tested on: S. aureus UAMS-1 biofilms; assay: Biofilm susceptibility; assay type: cell-based, Staphylococcus aureus; details: established S. aureus biofilm, 24 hrs treatment, 32×MIC
Source text: Bacterial strains used in these studies include the conventional laboratory strains Pseudomonas aeruginosa PA01 and Staphylococcus aureus UAMS-1, both of which are antibiotic susceptible and capable of forming robust biofilms. See […], Thomas J R, Nelson […]. Role of the accessory gene regulator (agr) in pathogenesis of staphylococcal osteomyelitis. Infection and immunity 1995; 63:3373-3380. Seven clinical keratitis isolates of Pseudomonas aeruginosa, were collected from the Flaum Eye Institute, Rochester N.Y. and 25 clinical isolates of Staphylococcus aureus from geographically distinct regions of the country where purchased from International Health Management Associates (IHMA; Schaumburg, Ill.). For experiments requiring planktonic cultures, the indicated organism was grown overnight in Luria-Bertani broth (LB; […] Biofilms were established by inoculating individual wells of flat-bottom polystyrene plates (Falcon, Corning Life Sciences; Durham, N.C.) with overnight cultures of the indicated organism into 200 ul of fresh LB to a final concentration of 1×10^7 CFU ml^-1. Plates were placed in a 37° C.-humidified incubator for 72 hours to allow static biofilm formation. Non-adherent cells were aspirated and biofilms were washed twice with phosphate-buffered saline prior to each experiment. […] After 24 hrs the remaining media and non-adherent cells were removed, biofilms were suspended in 0.8% NaCl and plated to quantify surviving bacteria. […] Biofilms were treated in increasing increments ranging from 0 to 64×MIC.

[2] = tested on: P. aeruginosa strain PA01 biofilms; assay: Biofilm susceptibility; assay type: cell-based, Pseudomonas aeruginosa; details: established PA01 biofilm, 24 hrs treatment, 32×MIC
Source text: Bacterial strains used in these studies include the conventional laboratory strains Pseudomonas aeruginosa PA01 and Staphylococcus aureus UAMS-1, both of which are antibiotic susceptible and capable of forming robust biofilms. See […], Thomas J R, Nelson […]. Role of the accessory gene regulator (agr) in pathogenesis of staphylococcal osteomyelitis. Infection and immunity 1995; 63:3373-3380. Seven clinical keratitis isolates of Pseudomonas aeruginosa, were collected from the Flaum Eye Institute, Rochester N.Y. and 25 clinical isolates of Staphylococcus aureus from geographically distinct regions of the country where purchased from International Health Management Associates (IHMA; Schaumburg, Ill.). […] After 24 hrs the remaining media and non-adherent cells were removed, biofilms were suspended in 0.8% NaCl and plated to quantify surviving bacteria. […] Biofilms were treated in increasing increments ranging from 0 to 64×MIC.

P. aeruginosa = assay: Fractional inhibitory concentration, checkerboard MIC; assay type: cell-based, Pseudomonas aeruginosa; details: for MIC in combination: PT combined with rifampicin; for MIC: Pseudomonas aeruginosa
P. aeruginosa PAO1 = assay: Selleck library screen in presence of sub-inhibitory polymyxin B/trimethoprim; assay type: cell-based, Pseudomonas aeruginosa; parameters: key: Growth (+); no growth (−)
Experimental: To identify agents that potentiate the antimicrobial activity of polymyxin B/trimethoprim we first determined the highest concentration of the polymyxin B/trimethoprim combination that allowed growth of P. aeruginosa strain PAO1 and S. aureus strain UAMS-1.
For Selleck library screening, individual wells of 96-well microtiter plates containing 88 μl of fresh media were inoculated with approximately 10^5 CFUs of P. aeruginosa strain PAO1 or S. aureus UAMS-1. Next, 2 μl of polymyxin B/trimethoprim was added to a final concentration of 0.2 μg ml^−1 or 1.25 μg ml^−1 for PA01 and UAMS-1, respectively. Library members were then added at either 5 μM or 50 μM final concentration. Plates were incubated at 37° C. for 16 hours and hits were identified as wells with no visible growth. […]

[3] = tested on: planktonic P. aeruginosa cells; assay: Antimicrobial kill curves; assay type: cell-based, Pseudomonas aeruginosa; details: 2× MIC, 4 hours post-treatment
Experimental: Overnight cultures of the indicated organism were used to inoculate (1:100 dilution) 100 ml of fresh media and grown to mid-exponential phase. […] Aliquots were taken at 1, 2, 3, 4, and 24 hours, serial diluted and plated for colony forming units.

S. aureus = assay: Fractional inhibitory concentration, checkerboard MIC; assay type: cell-based, Staphylococcus aureus; details: for MIC in combination: PT combined with rifampicin; for MIC: Staphylococcus aureus

CO[C@H]1/C=C/O[C@@]2(C)Oc3c(C)c(O)c4c(O)c(c(/C=N/N5CCN(C)CC5)c(O)c4c3C2=O)NC(=O)/C(C)=C\C=C\[C@H](C)[C@H](O)[C@@H](C)[C@@H](O)[C@@H](C)[C@H](OC(C)=O)[C@@H]1C [Rifampicin, rifampicin]
reduction in biofilm-associated CFU [1]: 4 log | reduction in biofilm-associated CFU [2]: 5 log | MIC in combination (P. aeruginosa; P. aeruginosa PAO1): 1.9 µg/mL | MIC in combination (P. aeruginosa; P. aeruginosa RW01): 1.9 µg/mL | MIC in combination (P. aeruginosa; P. aeruginosa RW02): 1.9 µg/mL | MIC in combination (P. aeruginosa; P. aeruginosa RW03): 3.9 µg/mL | MIC in combination (P. aeruginosa; P. aeruginosa RW04): 1.9 µg/mL | MIC in combination (P. aeruginosa; P. aeruginosa RW05): 1.9 µg/mL | MIC in combination (P. aeruginosa; P. aeruginosa RW06): 1.9 µg/mL | MIC in combination (P. aeruginosa; P. aeruginosa RW07): 1.9 µg/mL | MIC (P. aeruginosa; P. aeruginosa RW01): 15.6 µg/mL | MIC (P. aeruginosa; P. aeruginosa RW02): 15.6 µg/mL | MIC (P. aeruginosa; P. aeruginosa RW03): 15.6 µg/mL | MIC (P. aeruginosa; P. aeruginosa RW04): 15.6 µg/mL | MIC (P. aeruginosa; P. aeruginosa RW05): 31.2 µg/mL | MIC (P. aeruginosa; P. aeruginosa RW06): 15.6 µg/mL | MIC (P. aeruginosa; P. aeruginosa RW07): 15.6 µg/mL | MIC (P. aeruginosa; PAO1, P. aeruginosa PAO1): 15.6 µg/mL | P. aeruginosa growth, 5 μM (P. aeruginosa PAO1; drug 5 μM in presence of 0.2 μg ml^−1 polymyxin B/trimethoprim): − | P. aeruginosa growth, 50 μM (P. aeruginosa PAO1; drug 50 μM in presence of 0.2 μg ml^−1 polymyxin B/trimethoprim): − | reduction in CFU at hour 4 [3]: 6 log | MIC in combination (S. aureus; S. aureus 1071788): 0.0015 µg/mL | MIC in combination (S. aureus; S. aureus 1094094): 0.0015 µg/mL | MIC in combination (S. aureus; S. aureus 1094140): 0.0015 µg/mL | MIC in combination (S. aureus; S. aureus 1094147): 0.0015 µg/mL | MIC in combination (S. aureus; S. aureus 1094166): 0.0015 µg/mL | MIC in combination (S. aureus; S. aureus 1094178): 0.0076 µg/mL | MIC in combination (S. aureus; S. aureus 1097612): 0.0035 µg/mL | MIC in combination (S. aureus; S. aureus 1097630): 0.0015 µg/mL | MIC in combination (S. aureus; S. aureus 1101442): 0.0035 µg/mL | MIC in combination (S. aureus; S. aureus 1103430): 0.0015 µg/mL | MIC in combination (S. aureus; S. aureus 1110936): 0.0035 µg/mL | MIC in combination (S. aureus; S. aureus 1111063): 0.0076 µg/mL | MIC in combination (S. aureus; S. aureus 1122181): 0.0015 µg/mL | MIC in combination (S. aureus; S. aureus 1122187): 0.0035 µg/mL | MIC in combination (S. aureus; S. aureus 1122190): 0.0035 µg/mL | MIC in combination (S. aureus; S. aureus 1122197): 0.0015 µg/mL | MIC in combination (S. aureus; S. aureus 1125120): 0.0076 µg/mL | MIC in combination (S. aureus; S. aureus 1132822): 0.0015 µg/mL | MIC in combination (S. aureus; S. aureus 1142776): 0.0015 µg/mL | MIC in combination (S. aureus; S. aureus 1144105): 0.0035 µg/mL | MIC in combination (S. aureus; S. aureus UAMS-1): 0.0015 µg/mL | MIC (S. aureus; S. aureus 1071788): 0.01 µg/mL | MIC (S. aureus; S. aureus 1094094): 0.01 µg/mL | MIC (S. aureus; S. aureus 1094140): 0.01 µg/mL | MIC (S. aureus; S. aureus 1094147): 0.01 µg/mL | MIC (S. aureus; S. aureus 1094166): 0.01 µg/mL | MIC (S. aureus; S. aureus 1094178): 0.1 µg/mL | MIC (S. aureus; S. aureus 1097612): 0.05 µg/mL | MIC (S. aureus; S. aureus 1097630): 0.01 µg/mL | MIC (S. aureus; S. aureus 1101442): 0.05 µg/mL | MIC (S. aureus; S. aureus 1103430): 0.01 µg/mL | MIC (S. aureus; S. aureus 1110936): 0.05 µg/mL | MIC (S. aureus; S. aureus 1111063): 0.1 µg/mL | MIC (S. aureus; S. aureus 1122181): 0.01 µg/mL | MIC (S. aureus; S. aureus 1122187): 0.05 µg/mL | MIC (S. aureus; S. aureus 1122190): 0.05 µg/mL | MIC (S. aureus; S. aureus 1122197): 0.01 µg/mL | MIC (S. aureus; S. aureus 1125120): 0.05 µg/mL | MIC (S. aureus; S. aureus 1132822): 0.01 µg/mL | MIC (S. aureus; S. aureus 1142776): 0.01 µg/mL | MIC (S. aureus; S. aureus 1144105): 0.05 µg/mL | MIC (S. aureus; S. aureus UAMS-1): 0.01 µg/mL
